Laboratory results reported in ChEMBL document CHEMBL1136513, “Evaluation of vinylsulfamides as sulfhydryl selective alkylation reagents in protein modification” (Bioorg Med Chem Lett, 2003).

What was measured:
[1] = Half-life period at pH 7.2 in the presence of five times more cysteine; format: ADME
[2] = Half-life period at pH 8.1 in the presence of five times more cysteine; format: ADME
[3] = Half-life period at pH 8.1 in the presence of five times more lysine; format: ADME
[4] = Half-life period at pH 9.2 in the presence of five times more cysteine; ND1 indicates reaction rate was too quick to determine; format: ADME
[5] = Half-life period at pH 9.2 in the presence of five times more lysine; format: ADME
[6] = Half-life period at pH 7.2 in the presence of five times more lysine; ND2 indicates reaction rate was too slow to measure

C=CS(=O)(=O)NCc1ccc([N+](=O)[O-])cc1
half-life [1]: 1.28 h
half-life [2]: 0.45 h
half-life [3]: 178 h
T1/2 [4]: Reaction rate too quick
half-life [5]: 29.6 h
T1/2 [6]: Reaction rate too slow
